Laboratory results taken from ChEMBL document CHEMBL1201862, “PubChem BioAssay data set” (2004).
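A five-concentration, 48-hour dose response in 96-well plates underlies each endpoint, interpolated linearly between surrounding concentrations. Abbreviation: GI50, concentration required for 50% inhibition of growth.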 Activity calls are given as the source filed them. Rule as the data show it: active = GI50 up to about 1.1 µM and inactive = higher.

Columns and labels:
Test in all cases: NCI-60 cell line screen, 48 h
UO-31 = test system: UO-31
SF-295 = test system: SF-295
CAKI-1 = test system: CAKI-1
OVCAR-3 = test system: OVCAR-3
M14 = test system: M14
CCRF-CEM = test system: CCRF-CEM
HL-60 = test system: HL-60
HOP-18 = test system: HOP-18
HCT-116 = test system: HCT-116
HCC 2998 = test system: HCC 2998
SNB-75 = test system: SNB-75
K562 = test system: K562
SR = test system: SR
KM-20L2 = test system: KM-20L2
TK-10 = test system: TK-10
NCI-H23 = test system: NCI-H23
DMS-114 = test system: DMS-114

| SMILES | GI50 (UO-31) | GI50 (SF-295) | GI50 (CAKI-1) | GI50 (OVCAR-3) | GI50 (M14) | GI50 (CCRF-CEM) | GI50 (HL-60) | GI50 (HOP-18) | GI50 (HCT-116) | GI50 (HCC 2998) | GI50 (SNB-75) | GI50 (K562) | GI50 (SR) | GI50 (KM-20L2) | GI50 (TK-10) | GI50 (NCI-H23) | GI50 (DMS-114) |
| --- | --- | --- | --- | --- | --- | --- | --- | --- | --- | --- | --- | --- | --- | --- | --- | --- | --- |
| CC1(C)OC2OC(/C=C/[N+](=O)[O-])C3OC(C)(C)OC3C2O1 (stereo not given) | 20.4 µM (inactive) | 19.5 µM (inactive) | 4.67 µM (inactive) | 16.4 µM (inactive) | 12.3 µM (inactive) | 2.94 µM (inactive) | 2.94 µM (inactive) | 23.1 µM (inactive) | 9.06 µM (inactive) | 16.8 µM (inactive) | 20.2 µM (inactive) | 6.84 µM (inactive) | 6.7 µM (inactive) | 19.5 µM (inactive) | 5.26 µM (inactive) | 18.7 µM (inactive) | 18.6 µM (inactive) |
| COc1cccc(N2C(=O)c3c(c4[nH]c5ccccc5c4c4ccc(C(C)(C)C)cc34)C2=O)c1 | > 100 µM (inactive) | > 100 µM (inactive) | > 100 µM (inactive) | > 100 µM (inactive) | > 100 µM (inactive) | > 100 µM (inactive) | – | > 100 µM (inactive) | > 100 µM (inactive) | > 100 µM (inactive) | > 100 µM (inactive) | > 100 µM (inactive) | > 100 µM (inactive) | > 100 µM (inactive) | > 100 µM (inactive) | > 100 µM (inactive) | > 100 µM (inactive) |
| CCOC(=O)C1N(S(=O)(=O)c2ccc(C)cc2)CCC12C(c1ccc(OC)c(OC)c1)=Nc1ccccc12 (stereo not given) | > 100 µM (inactive) | > 100 µM (inactive) | > 100 µM (inactive) | > 100 µM (inactive) | > 100 µM (inactive) | > 100 µM (inactive) | > 100 µM (inactive) | > 100 µM (inactive) | > 100 µM (inactive) | > 100 µM (inactive) | 35.5 µM (inactive) | > 100 µM (inactive) | – | > 100 µM (inactive) | > 100 µM (inactive) | > 100 µM (inactive) | > 100 µM (inactive) |
| Cc1cccc(C2=NC(C)(C)C(C)(C)N=C2c2cccc(C)n2)n1 | > 100 µM (inactive) | > 100 µM (inactive) | > 100 µM (inactive) | 44.1 µM (inactive) | 71.6 µM (inactive) | 71 µM (inactive) | 53.6 µM (inactive) | > 100 µM (inactive) | 35.4 µM (inactive) | > 100 µM (inactive) | > 100 µM (inactive) | 41.8 µM (inactive) | – | 84.1 µM (inactive) | > 100 µM (inactive) | 30.1 µM (inactive) | 30.8 µM (inactive) |
| COc1ccc(C(=O)O)c(Cc2ccc3ccccc3c2)c1 | > 100 µM (inactive) | > 100 µM (inactive) | > 100 µM (inactive) | > 100 µM (inactive) | > 100 µM (inactive) | > 100 µM (inactive) | > 100 µM (inactive) | > 100 µM (inactive) | > 100 µM (inactive) | – | > 100 µM (inactive) | > 100 µM (inactive) | > 100 µM (inactive) | > 100 µM (inactive) | > 100 µM (inactive) | > 100 µM (inactive) | > 100 µM (inactive) |
| CC1(c2cccc3c2C2(O)C=CC4(CCC32)OCCO4)OCCO1 (stereo not given) | > 100 µM (inactive) | > 100 µM (inactive) | > 100 µM (inactive) | > 100 µM (inactive) | > 100 µM (inactive) | > 100 µM (inactive) | > 100 µM (inactive) | > 100 µM (inactive) | > 100 µM (inactive) | > 100 µM (inactive) | > 100 µM (inactive) | > 100 µM (inactive) | – | > 100 µM (inactive) | > 100 µM (inactive) | > 100 µM (inactive) | > 100 µM (inactive) |
| CCN(CC)CCN(C)CC(C)(C)C(=O)/C=C/c1ccccc1 | 13.4 µM (inactive) | 15 µM (inactive) | 11.8 µM (inactive) | 13.5 µM (inactive) | 13 µM (inactive) | 4.99 µM (inactive) | 6.22 µM (inactive) | 15.9 µM (inactive) | – | 14.5 µM (inactive) | 4.36 µM (inactive) | 0.0693 µM (active) | 10.5 µM (inactive) | 11.1 µM (inactive) | 22.2 µM (inactive) | 12.6 µM (inactive) | 6.58 µM (inactive) |
| COC(=O)C(=O)C(C(=O)C(=O)Nc1cc(Cl)c(Cl)cc1Cl)c1nc2ccc([N+](=O)[O-])cc2nc1O (stereo not given) | 51.4 µM (inactive) | > 100 µM (inactive) | 60.8 µM (inactive) | – | > 100 µM (inactive) | > 100 µM (inactive) | – | 8.81 µM (inactive) | > 100 µM (inactive) | > 100 µM (inactive) | – | > 100 µM (inactive) | > 100 µM (inactive) | > 100 µM (inactive) | > 100 µM (inactive) | > 100 µM (inactive) | > 100 µM (inactive) |
| CCCCCCCCCCCCCP(=O)(O)O | > 100 µM (inactive) | > 100 µM (inactive) | – | > 100 µM (inactive) | > 100 µM (inactive) | > 100 µM (inactive) | > 100 µM (inactive) | > 100 µM (inactive) | > 100 µM (inactive) | > 100 µM (inactive) | 23.2 µM (inactive) | – | – | > 100 µM (inactive) | > 100 µM (inactive) | > 100 µM (inactive) | > 100 µM (inactive) |
| COC1=C(C(=O)OC(C)(C)C)C23CCCCC2(C(C(=O)OC(C)(C)C)=C(OC)C3C(=O)OC(C)(C)C)C1C(=O)OC(C)(C)C (stereo not given) | 9.35 µM (inactive) | 4.78 µM (inactive) | > 100 µM (inactive) | 7.8 µM (inactive) | 7.89 µM (inactive) | 27.9 µM (inactive) | 6.81 µM (inactive) | 12.5 µM (inactive) | 14.2 µM (inactive) | 53.6 µM (inactive) | 84.5 µM (inactive) | 9.64 µM (inactive) | 19.6 µM (inactive) | 16.7 µM (inactive) | > 100 µM (inactive) | 21.5 µM (inactive) | 9.84 µM (inactive) |
| Cc1ccc(-c2cc(-c3ccccc3)c(C#N)c(=O)n2C2OC(CO)C(O)C(O)C2O)cc1 (stereo not given) | > 100 µM (inactive) | > 100 µM (inactive) | – | > 100 µM (inactive) | > 100 µM (inactive) | > 100 µM (inactive) | > 100 µM (inactive) | > 100 µM (inactive) | > 100 µM (inactive) | > 100 µM (inactive) | – | 86.7 µM (inactive) | – | > 100 µM (inactive) | > 100 µM (inactive) | > 100 µM (inactive) | > 100 µM (inactive) |
| CCOC(=O)C1(C)CCC(C(C(=O)O)C(=O)O)CC1=O (stereo not given) | > 100 µM (inactive) | > 100 µM (inactive) | > 100 µM (inactive) | > 100 µM (inactive) | > 100 µM (inactive) | > 100 µM (inactive) | > 100 µM (inactive) | > 100 µM (inactive) | > 100 µM (inactive) | > 100 µM (inactive) | > 100 µM (inactive) | – | > 100 µM (inactive) | > 100 µM (inactive) | > 100 µM (inactive) | – | > 100 µM (inactive) |
| O=C1OCC2C1C1c3ccccc3C(O)c3ccccc3C21 (stereo not given) | > 100 µM (inactive) | > 100 µM (inactive) | > 100 µM (inactive) | > 100 µM (inactive) | > 100 µM (inactive) | > 100 µM (inactive) | > 100 µM (inactive) | > 100 µM (inactive) | > 100 µM (inactive) | > 100 µM (inactive) | > 100 µM (inactive) | > 100 µM (inactive) | > 100 µM (inactive) | > 100 µM (inactive) | > 100 µM (inactive) | > 100 µM (inactive) | > 100 µM (inactive) |
| CNC(=S)NC(=S)N(C)C | > 100 µM (inactive) | > 100 µM (inactive) | > 100 µM (inactive) | 3.18 µM (inactive) | > 100 µM (inactive) | – | 3.42 µM (inactive) | > 100 µM (inactive) | 4.71 µM (inactive) | > 100 µM (inactive) | > 100 µM (inactive) | 1.75 µM (inactive) | 3.44 µM (inactive) | > 100 µM (inactive) | > 100 µM (inactive) | 0.692 µM (active) | 64.9 µM (inactive) |
| CCC(/C(=N\Nc1c(Cl)cc(Cl)cc1Cl)c1ccccc1)n1ccnc1C (stereo not given) | 5.97 µM (inactive) | 11.5 µM (inactive) | 11 µM (inactive) | 5.82 µM (inactive) | 13.3 µM (inactive) | 13 µM (inactive) | 3.82 µM (inactive) | 14.9 µM (inactive) | 7.05 µM (inactive) | 3.66 µM (inactive) | 14.6 µM (inactive) | 5.07 µM (inactive) | – | 4.61 µM (inactive) | 14.3 µM (inactive) | 10.7 µM (inactive) | 6.58 µM (inactive) |
| N#CCCN(CCC#N)c1ccc(C(Sc2ccccc2)C(NC(=O)c2cc([N+](=O)[O-])ccc2Cl)C(=O)Sc2ccccc2)cc1 (stereo not given) | 2.2 µM (inactive) | 3.37 µM (inactive) | 1.45 µM (inactive) | 2.56 µM (inactive) | 3.32 µM (inactive) | 0.172 µM (active) | 1.4 µM (inactive) | 24 µM (inactive) | 2.17 µM (inactive) | 6.65 µM (inactive) | 5.41 µM (inactive) | 2.39 µM (inactive) | 1.51 µM (inactive) | 2.57 µM (inactive) | 7.28 µM (inactive) | 5.06 µM (inactive) | 2.37 µM (inactive) |
| O=C(O)CCC(=O)OCN1C(=O)C2C3C=CC(C2C1=O)C1C2C(=O)N(COC(=O)CCC(=O)O)C(=O)C2C31 (stereo not given) | 98.6 µM (inactive) | > 100 µM (inactive) | > 100 µM (inactive) | > 100 µM (inactive) | > 100 µM (inactive) | 34 µM (inactive) | 23.4 µM (inactive) | 76.9 µM (inactive) | > 37.8 µM (inactive) | > 100 µM (inactive) | > 95.7 µM (inactive) | > 100 µM (inactive) | 30.8 µM (inactive) | > 100 µM (inactive) | > 100 µM (inactive) | > 100 µM (inactive) | > 48.1 µM (inactive) |
